From ChEMBL document CHEMBL4359891, “Synthesis of polyfluoroalkyl sp2-iminosugar glycolipids and evaluation of their immunomodulatory properties towards anti-tumor, anti-leishmanial and anti-inflammatory therapies” (Eur J Med Chem, 2019) come the findings set out here.

pEC50: −log10 of the molar value. The source made the active and inactive calls. No cut-off for these calls is given here. A value given as a limit tells only on which side of the number the result lay.

One data set concerns HBL-100. Kind of data set: Antiproliferative activity against human HBL100 cells assessed as growth inhibition after 48 hrs by SRB assay. The class given is functional. The following applies: HBL-100, 48 h. (Sulforhodamine B stains cellular protein and so reports cell mass.)
The subject of another data set is THP-1. Nature of the data set: Cytotoxicity against human THP1 cells assessed as reduction in cell viability after 72 hrs by MTT assay. The class given is cell-based. To be noted: THP-1, 72 h. (Formazan colour is commonly taken as a measure of viable cells.)
The next data set concerns HeLa. Kind of data set: Antiproliferative activity against human HeLa cells assessed as growth inhibition after 48 hrs by SRB assay. It is filed as functional.
The subject of a further data set is WiDr. Nature of the data set: Antiproliferative activity against human WiDr cells assessed as growth inhibition after 48 hrs by SRB assay. The class given is functional.
The test system of the next data set is SW1573. Nature of the data set: Antiproliferative activity against human SW1573 cells assessed as growth inhibition after 48 hrs by SRB assay. It is filed as functional. The following applies: SW1573, 48 h.
The subject of another data set is A549. Kind of data set: Antiproliferative activity against human A549 cells assessed as growth inhibition after 48 hrs by SRB assay. The class given is functional. To be noted: A549, 48 h.
Data set [1] is described as follows: Critical aggregation concentration of compound by spectrofluorophotometric method. It is filed as physicochemical.
Another data set relates to T47D. Kind of data set: Antiproliferative activity against human T47D cells assessed as growth inhibition after 48 hrs by SRB assay. The class given is functional.
The test system of another data set is Leishmania donovani. Nature of the data set: Antileishmanial activity against intracellular amastigote stage of Leishmania donovani fused with LUC infected in human THP1 cells assessed as parasite growth inhibition after 72 hrs post infection by luciferase based assay. It is filed as functional, organism-based. To be noted: THP-1, 72 h.
In data set [2] the target is Mitogen-activated protein kinase 14 (Mus musculus) (UniProt P47811). Nature of the data set: Activation of p38 alpha MAPK in mouse BV2 cells assessed as p38 phosphorylation at 1 uM incubated for 15 to 60 mins by Western blot analysis. It is filed as cell-based. On the technique in general: Immunoblotting shows a protein as a band on a membrane.
Mitogen-activated protein kinase 14 (Mus musculus), sequence (P47811 whole entry): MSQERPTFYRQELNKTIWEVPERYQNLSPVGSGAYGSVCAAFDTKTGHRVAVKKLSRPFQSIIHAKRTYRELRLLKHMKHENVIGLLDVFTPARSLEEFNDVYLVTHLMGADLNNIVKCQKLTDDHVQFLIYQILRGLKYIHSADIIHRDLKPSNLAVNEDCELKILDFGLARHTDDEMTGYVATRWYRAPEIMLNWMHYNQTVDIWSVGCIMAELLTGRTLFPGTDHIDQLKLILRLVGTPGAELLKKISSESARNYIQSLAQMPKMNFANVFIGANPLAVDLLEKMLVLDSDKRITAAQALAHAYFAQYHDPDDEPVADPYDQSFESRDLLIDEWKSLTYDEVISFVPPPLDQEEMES
Data set [3] relates to BV-2. Kind of data set: Cytotoxicity against mouse BV2 cells assessed as reduction in cell viability up to 10 uM by crystal violet staining based assay.
In data set [4] the test system is BV-2. Nature of the data set: Antiinflammatory activity against mouse BV2 cells assessed as reduction in LPS-induced iNOS protein expression at 10 uM by Western blot analysis. It is filed as functional, cell-based.
Data set [5] concerns the target Mitogen-activated protein kinase 14 (Mus musculus) (UniProt P47811). Kind of data set: Activation of p38 alpha MAPK in mouse BV2 cells assessed as p38 phosphorylation at 10 uM by Western blot analysis. To be noted: TDE = time-dependent effect. It is filed as cell-based.
Data set [6] relates to BV-2. Nature of the data set: Antiinflammatory activity against mouse BV2 cells assessed as reduction in LPS-induced nitrite level at 1 to 10 uM by Griess assay. It is filed as functional, cell-based.
Data set [7] concerns the target Mitogen-activated protein kinase 14 (Mus musculus) (UniProt P47811). Kind of data set: Activation of p38 alpha MAPK in mouse BV2 cells assessed as p38 phosphorylation at 1 uM by Western blot analysis. It is filed as cell-based. To be noted: TDE = time-dependent effect.
In data set [8] the test system is BV-2. Nature of the data set: Antiinflammatory activity against mouse BV2 cells assessed as reduction in LPS-induced iNOS protein expression at 1 uM by Western blot analysis. It is filed as functional, cell-based.

With `O=C(CCC(F)(F)C(F)(F)C(F)(F)C(F)(F)F)NCCCCCCCCCN[C@@H]1[C@H](O)[C@@H](O)[C@@H](O)[C@H]2COC(=O)N21`, the GI50 (usually the concentration that inhibits growth by half) in the data set on HBL-100 was greater than 100 µM; in the data set with HeLa, 45 µM; with WiDr, greater than 100 µM; in the data set with SW1573, greater than 100 µM; with A549, 76 µM; in the data set on T47D, 96 µM. Also, the figures for the negative-log EC50 (pEC50) in the data set with THP-1 and with Leishmania donovani were less than 3.70 and less than 4.40, respectively. The compound also yielded a CAC in data set [1] of 118 µM.
As to `O=C(CCC(F)(F)C(F)(F)C(F)(F)C(F)(F)F)NCCCCCCCCCN[C@@H]1[C@H](O)[C@@H](O)[C@H](O)[C@H]2COC(=O)N21`, the concentration for 50% growth inhibition (GI50) in the data set with HBL-100, in the data set with HeLa, in the data set with WiDr, with SW1573, in the data set with A549 and in the data set on T47D was greater than 100 µM each time. In addition, the pEC50 (as a rule, the negative decadic logarithm of the EC50, by convention in mol/L) in the data set with THP-1 was less than 3.70; in the data set on Leishmania donovani, less than 4.40. In data set [1], the CAC amounted to 77.9 µM.
Regarding `O=C(CCC(F)(F)C(F)(F)C(F)(F)C(F)(F)C(F)(F)C(F)(F)C(F)(F)C(F)(F)F)NCCCCCCCCCN[C@@H]1[C@H](O)[C@@H](O)[C@H](O)[C@H]2COC(=O)N21`, the GI50 in the data set with HBL-100, with HeLa, in the data set with WiDr, in the data set on SW1573, with A549 and with T47D was greater than 100 µM in each case. The pEC50 in the data set with THP-1 is 3.82; in the data set with Leishmania donovani it was 4.52. The compound further registered a CAC in data set [1] of 6.9 µM.
Regarding `CCCCCCCCCCCCS(=O)(=O)[C@@H]1[C@H](O)[C@@H](O)[C@@H](O)[C@H]2COC(=O)N21`, the result in [2] was Active.
Turning to `O=C(CCC(F)(F)C(F)(F)C(F)(F)C(F)(F)C(F)(F)C(F)(F)F)NCCCCCCCCCN[C@@H]1[C@H](O)[C@@H](O)[C@H](O)[C@H]2COC(=O)N21`, the GI50 in the data set with HBL-100 is 16 µM; in the data set with HeLa it was 12 µM; in the data set on WiDr it was 13 µM; in the data set with SW1573, 14 µM; in the data set with A549, 12 µM; in the data set with T47D, 11 µM. Moreover, the pEC50 with THP-1 is 4.19; in the data set on Leishmania donovani, 4.61. The Activity result with BV-2 [3] is “Non-Toxic”; in data set [5], “Tde”. Moreover, the result with BV-2 [4] and in the data set on BV-2 [6] was Active. The compound also gave a CAC in [1] of 22 µM.
As to `CCCCCCCCCCCCCCCCOP(=O)([O-])OCC[N+](C)(C)C` [MILTEFOSINE], in the data set on Leishmania donovani, the pEC50 is 6.36.
`O=C(CCC(F)(F)C(F)(F)C(F)(F)C(F)(F)C(F)(F)C(F)(F)C(F)(F)C(F)(F)F)NCCCCCCCCCN[C@@H]1[C@H](O)[C@@H](O)[C@@H](O)[C@H]2COC(=O)N21`: the GI50 with HBL-100, with HeLa, in the data set with WiDr, in the data set on SW1573, with A549 and in the data set with T47D was greater than 100 µM in each case. Besides, the pEC50 was 3.91 with THP-1 and 4.64 in the data set on Leishmania donovani. In data set [1], the CAC came to 13 µM.
For the compound `O=C(CCC(F)(F)C(F)(F)C(F)(F)C(F)(F)C(F)(F)C(F)(F)F)NCCCCCCCCCN[C@@H]1[C@H](O)[C@@H](O)[C@@H](O)[C@H]2COC(=O)N21`, the GI50 in the data set with HBL-100 is 16 µM; in the data set on HeLa, 10 µM; in the data set with WiDr it was 17 µM; in the data set with SW1573 it was 14 µM; with A549, 17 µM; in the data set with T47D, 15 µM. In addition, the pEC50 was 4.25 in the data set with THP-1 and 4.57 in the data set on Leishmania donovani. Also, the Activity result is “Tde” in data set [7] and “Non-Toxic” in the data set with BV-2 [3]. Further, the result in the data set on BV-2 [8] and in the data set on BV-2 [6] was Active. Further, in data set [1], the CAC amounted to 14 µM.
